One experiment has as its target T1, human CK1 delta (Homo sapiens, UniProt P48730).
T1 construct: purchased Invitrogen Corporation PV3665
Briefly: FRET Z'Lyte kinase assay, CK1 delta. It is filed as biochemical. To be noted: peptide substrate SER/THR 11 2 μM, ATP 4 times the KM, read-out: CK1 delta Cl50. The text has this: The capacity of the compounds of the invention to inhibit the phosphorylation of casein by casein kinase 1 epsilon and delta may be evaluated using a FRET (Fluorescence Resonance Energy Transfer) fluorescence test with the aid of the Z'Lyte™ kinase assay Kit (reference PV3670; Invitrogen Corporation™) according to the manufacturer's instructions.
The casein kinases 1 used are obtained from Invitrogen Corporation (human CK1 epsilon PV3500 and human CK1 delta PV3665).
A peptide substrate, labelled at both ends with a fluorophore donor group (coumarin) and a fluorophore acceptor group (fluorescein), constituting a FRET system is phosphorylated in the presence of ATP by casein kinase 1 epsilon or delta in the presence of increasing concentrations of compounds of the invention.
The mixture is treated with a site-specific protease that specifically cleaves the peptide substrate to form two fluorescent fragments having a large fluorescence emission ratio.
The fluorescence observed is thus related to the capacity of the products of the invention to inhibit the phosphorylation of the peptide substrate by casein kinase 1 epsilon or casein kinase 1 delta. […]
The emitted fluorescence is measured at wavelengths of 445 and 520 nm (excitation at 400 nm).

In experiment [1] the test system is Mper1-luc Rat-1 (P2C4) fibroblasts. Briefly: Circadian cell assay (mPer1 luciferase reporter, period prolongation). Particulars: effective concentration that induced a 1-hour prolongation of the circadian period, interpolated from hyperbolic curve. The class given is cell-based. The protocol: Mper1-luc Rat-1 (P2C4) fibroblast cultures were prepared by dividing the cultures every 3-4 days (approximately 10-20% of confluence) on 150 cm^2 degassed polystyrene tissue culture flasks (Falcon® #35-5001) and maintained in growth medium [EMEM (Cellgro #10-0,0-CV); 10% foetal bovine serum (FBS; Gibco #16000-044); and 50 I.U./ml of penicillin-streptomycin (Cellgro #30-001-CI)] at 37° C. and under 5% CO2.
Cells obtained from Rat-1 fibroblast cultures at 30-50% of confluence as described above were co-transfected with vectors containing the selection marker for resistance to zeocin for a stable transfection and a luciferase reporter gene controlled by the mPer-1 promoter. After 24 to 48 hours, the cultures were divided on 96-well plates and maintained in growth medium supplemented with 50-100 μg/ml of zeocin (Invitrogen® #45-0430) for 10-14 days. The zeocin-resistant stable transfectants were evaluated for the expression of the reporter by adding 100 μM luciferin (Promega® #E1603®) to the growth medium and by assaying the luciferase activity on a TopCount® scintillation counter (Packard Model #C384V00). The Rat-1 cell clones expressing both zeocin resistance and lucerifase activity controlled by mPer1 were serum-shock synchronized with 50% horse serum [HS (Gibco® #16050-122)] and the activity of the circadian reporter was evaluated. The P2C4 clone of Mper1-luc Rat-1 fibroblasts was selected to test the compound.
Mper1-luc Rat-1 (P2C4) fibroblasts at 40-50% of confluence, obtained according to the protocol described above, were plated out onto 96-well opaque tissue culture plates (Perkin Elmer® #6005680). The cultures are maintained in growth medium supplemented with 100 μg/ml of zeocin (Invitrogen #45-0430) until they reach 100% of confluence (48-72 h). The cultures were then synchronized with 100 μl of synchronization medium [EMEM (Cellgro #10-0,0-CV); 100 I.U./ml of penicillin-streptomycin (Cellgro #30-001-C1); 50% HS (Gibco #16050-122)] for 2 hours at 37° C. and under 5% CO2. After synchronization, the cultures were rinsed with 100 μl of EMEM (Cellgro #10-010-CV) for 10 minutes at ambient temperature. After rinsing, the medium was replaced with 300 μl of CO2 independent medium [CO2I (Gibco #18045-088); 2 mM L-glutamine (Cellgro #25-005-C1); 100 U.I./ml of penicillin-streptomycin (Cellgro #30-001-C1); 100 μM luciferin (Promega #E 1603)]. […]
The two methods produced a virtually identical period estimation on a range of circadian periods. […] The data were analysed by adjusting a hyperbolic curve to the data expressed as change of period (y-axis) as a function of the concentration of the test compound (x-axis) in the XLfit™ software and the CE Delta (t+1 h) was interpolated from this curve.
Background: Reporter assays use an easily measured gene product as a stand-in for the process of interest.

Structures are written as SMILES. Bounds are passed on as bounds.

T1 sequence (P48730 whole entry): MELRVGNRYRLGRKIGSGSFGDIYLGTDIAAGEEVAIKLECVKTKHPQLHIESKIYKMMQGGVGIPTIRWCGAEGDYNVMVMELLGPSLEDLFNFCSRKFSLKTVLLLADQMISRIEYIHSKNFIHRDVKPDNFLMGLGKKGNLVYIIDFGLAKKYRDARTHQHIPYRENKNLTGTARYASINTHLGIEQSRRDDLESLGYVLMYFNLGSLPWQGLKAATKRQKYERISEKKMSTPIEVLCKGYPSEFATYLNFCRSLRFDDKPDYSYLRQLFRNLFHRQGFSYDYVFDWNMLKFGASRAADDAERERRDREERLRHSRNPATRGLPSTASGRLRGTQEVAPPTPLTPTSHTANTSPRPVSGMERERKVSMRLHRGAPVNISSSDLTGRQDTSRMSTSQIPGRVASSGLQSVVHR

Consider `Cc1nc2ccc(N3CCNCC3)nn2c1-c1ccncc1` [Compound 1, 2-Methyl-6-piperazin-1-yl-3-pyridin-4-yl-imidazo[1,2-b]pyridazine], for which, on human CK1 delta, the IC50 is under 1 nM. In experiment [1], the “CE Delta (t + 1 h)” value worked out at 20 nM.

The record behind these values is patent publication US20110312934A1, “2-ALKYL-6-CYCLOAMINO-3-(PYRIDIN-4-YL)IMIDAZO[1,2-B]-PYRIDAZINE DERIVATIVES, PREPARATION THEREOF, AND THERAPEUTIC APPLICATION THEREOF” (SANOFI-AVENTIS, priority 2008, published 2011).
